The record followed here is patent US20250340557A1, “PYRIMIDINE DERIVATIVE” (ASKA PHARMACEUTICAL CO., LTD., priority 2022, published 2025).

Like-named read-outs stand apart in the source and are kept apart here.

This assay has as its target T1, human mPGES-1 (Homo sapiens, UniProt O14684).
T1 construct: made in house; host or cells: COS-1 cells (transient transfection; microsomal fraction used as enzyme)
T1 sequence (O14684 1-152): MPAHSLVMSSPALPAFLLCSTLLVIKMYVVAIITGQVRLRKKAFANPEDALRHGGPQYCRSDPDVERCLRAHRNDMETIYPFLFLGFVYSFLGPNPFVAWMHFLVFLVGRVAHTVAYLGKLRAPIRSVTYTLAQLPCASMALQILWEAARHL
Briefly: Test for mPGES-1 inhibitory activity (microsomal enzyme, PGE2 EIA). The settings on record: 4° C., 4 minutes, read-out: h mPGES1 IC50. Type of assay: biochemical. The gist of the method:
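IC50 values were derived from EIA-quantified PGE2 after a 4 min, 4 °C reaction with PGH2 at 1 μM final, stopped with ferric chloride/citric acid. Beforehand, compound (2% DMSO final) sat 15 min at 4 °C with human mPGES-1 microsomes from transiently transfected COS-1 cells. Buffer was sodium phosphate pH 7.2 containing 2.5 mM reduced glutathione and 1 mM EDTA.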

The mark [1] stands for this setting: microsomes from COS-1 cells transfected with human mPGES-1 cDNA, substrate PGH2 1 μM, PGE2 measured by EIA.
The mark [2] stands for this setting: microsomes of COS-1 cells transfected with human mPGES-1 cDNA, PGH2 1 μM, PGE2 by EIA.

As usually defined, the IC50 is the point on the concentration scale where inhibition reaches its midpoint. Take `Cc1nc(-c2c(C(F)(F)F)ccc(CNC(=O)C3CCN(c4ccc(Cl)c(Cl)c4)CC3)c2F)[nH]c(=O)c1F` [Example 73, 1-(3,4-dichlorophenyl)-N-[2-fluoro-3-(5-fluoro-4-methyl-6-oxo-1,6-dihydropyrimidin-2-yl)-4-(trifluoromethyl)benzyl]piperidine-4-carboxamide]: under setting [1], the IC50 is 4.4 nM.

As for `Cc1cc(=O)[nH]c(-c2c(C(F)(F)F)ccc(CNC(=O)[C@H]3CC[C@H](OCc4cc(F)cc(Cl)c4)CC3)c2F)n1` [Example 122, trans-4-[(3-chloro-5-fluorobenzyl)oxy]-N-[2-fluoro-3-(4-methyl-6-oxo-1,6-dihydropyrimidin-2-yl)-4-(trifluoromethyl)benzyl]cyclohexane-1-carboxamide], under setting [1], the IC50 is under 1 nM.

For the molecule `Cc1cc(=O)[nH]c(-c2c(C(F)(F)F)ccc(CNC(=O)C3CCN(c4ccc(Cl)cc4)CC3)c2F)n1` [Example 76, 1-(4-chlorophenyl)-N-[2-fluoro-3-(4-methyl-6-oxo-1,6-dihydropyrimidin-2-yl)-4-(trifluoromethyl)benzyl]piperidine-4-carboxamide], under setting [1], the IC50 came to 31 nM.

Turning to `Cc1nc(-c2c(C(F)(F)F)ccc(CNC(=O)[C@H]3C[C@H](OCc4ccc(C(F)(F)F)cc4)C3)c2F)[nH]c(=O)c1F` [Example 217, trans-N-[2-fluoro-3-(5-fluoro-4-methyl-6-oxo-1,6-dihydropyrimidin-2-yl)-4-(trifluoromethyl)benzyl]-3-{[4-(trifluoromethyl)benzyl]oxy}cyclobutane-1-carboxamide], under setting [2], the IC50 was 16 nM.

With `CCc1nc(-c2c(C(F)(F)F)ccc(CNC(=O)[C@H]3C[C@H](OCc4ccc(F)c(F)c4)C3)c2F)[nH]c(=O)c1F` [Example 237, trans-3-[(3,4-difluorobenzyl)oxy]-N-[3-(4-ethyl-5-fluoro-6-oxo-1,6-dihydropyrimidin-2-yl)-2-fluoro-4-(trifluoromethyl)benzyl]cyclobutane-1-carboxamide], the half-inhibitory concentration (IC50) under setting [2] was under 1 nM.

`O=c1cc(C(F)(F)F)nc(-c2c(C(F)(F)F)ccc(CNC(=O)[C@H]3C[C@H](OCc4cccc(Cl)c4F)C3)c2F)[nH]1` [Example 155, trans-3-[(3-chloro-2-fluorobenzyl)oxy]-N-{2-fluoro-3-[6-oxo-4-(trifluoromethyl)-1,6-dihydropyrimidin-2-yl]-4-(trifluoromethyl)benzyl}cyclobutane-1-carboxamide]: under setting [2], the half-inhibitory concentration (IC50) was under 1 nM.

For the molecule `O=c1cc(C(F)(F)F)nc(-c2c(C(F)(F)F)ccc(CNC(=O)[C@H]3C[C@H](OCc4ccc(F)c(F)c4)C3)c2F)[nH]1` [Example 150, trans-3-[(3,4-difluorobenzyl)oxy]-N-{2-fluoro-3-[6-oxo-4-(trifluoromethyl)-1,6-dihydropyrimidin-2-yl]-4-(trifluoromethyl)benzyl}cyclobutane-1-carboxamide], the IC50 under setting [2] is under 1 nM.

In the case of `O=c1cc(C(F)F)nc(-c2c(C(F)(F)F)ccc(CNC(=O)[C@H]3C[C@H](OCc4cccc(Cl)c4F)C3)c2F)[nH]1` [Example 174, trans-3-[(3-chloro-2-fluorobenzyl)oxy]-N-{3-[4-(difluoromethyl)-6-oxo-1,6-dihydropyrimidin-2-yl]-2-fluoro-4-(trifluoromethyl)benzyl}cyclobutane-1-carboxamide], the half-maximal inhibitory concentration (IC50) under setting [2] was under 1 nM.

`O=c1cc(C(F)(F)F)nc(-c2c(C(F)(F)F)ccc(CNC(=O)[C@H]3C[C@@H](OCc4ccccc4)C3)c2F)[nH]1` [Example 135, cis-3-(benzyloxy)-N-{2-fluoro-3-[6-oxo-4-(trifluoromethyl)-1,6-dihydropyrimidin-2-yl]-4-(trifluoromethyl)benzyl}cyclobutane-1-carboxamide]: under setting [1], the IC50 amounted to 6.4 nM.

Consider `O=C(NCc1ccc(C(F)(F)F)c(-c2nc(C(F)(F)F)cc(=O)[nH]2)c1F)N1CCC(Oc2ccc(Cl)c(Cl)c2)CC1` [Example 258, 4-(3,4-dichlorophenoxy)-N-{2-fluoro-3-[6-oxo-4-(trifluoromethyl)-1,6-dihydropyrimidin-2-yl]-4-(trifluoromethyl)benzyl}piperidine-1-carboxamide], for which, under setting [2], the half-maximal inhibitory concentration (IC50) was under 1 nM.

In the case of `O=c1[nH]c(-c2c(C(F)(F)F)ccc(CNC(=O)[C@H]3C[C@H](OCc4cccc(Cl)c4)C3)c2F)nc2c1CCC2` [Example 247, trans-3-[(3-chlorobenzyl)oxy]-N-[2-fluoro-3-(4-oxo-4,5,6,7-tetrahydro-3H-cyclopenta[d]pyrimidin-2-yl)-4-(trifluoromethyl)benzyl]cyclobutane-1-carboxamide], the half-maximal inhibitory concentration (IC50) under setting [2] was under 1 nM.

Consider `Cc1cc(N2CCC(C(=O)NCc3ccc(C(F)(F)F)c(-c4nc(C(F)(F)F)cc(=O)[nH]4)c3F)CC2)ccc1F` [Example 60, N-{2-fluoro-3-[6-oxo-4-(trifluoromethyl)-1,6-dihydropyrimidin-2-yl]-4-(trifluoromethyl)benzyl}-1-(4-fluoro-3-methylphenyl)piperidine-4-carboxamide], for which the IC50 under setting [1] is under 1 nM.

Consider `O=C(NCc1ccc(C(F)(F)F)c(-c2nc(C(F)(F)F)cc(=O)[nH]2)c1F)C1CCN(c2ccc(Cl)cn2)CC1` [Example 27, 1-(5-chloropyridin-2-yl)-N-{2-fluoro-3-[6-oxo-4-(trifluoromethyl)-1,6-dihydropyrimidin-2-yl]-4-(trifluoromethyl)benzyl}piperidine-4-carboxamide], for which the 50% inhibitory concentration (IC50) under setting [1] was under 1 nM.

For the molecule `O=c1cc(C(F)(F)F)nc(-c2c(C(F)(F)F)ccc(CNC(=O)[C@H]3C[C@H](OCc4ccc(Cl)cc4)C3)c2F)[nH]1` [Example 140, trans-3-[(4-chlorobenzyl)oxy]-N-{2-fluoro-3-[6-oxo-4-(trifluoromethyl)-1,6-dihydropyrimidin-2-yl]-4-(trifluoromethyl)benzyl}cyclobutane-1-carboxamide], under setting [1], the 50% inhibitory concentration (IC50) was 1 nM.

Consider `O=C(NCc1ccc(C(F)(F)F)c(-c2nc(C(F)(F)F)cc(=O)[nH]2)c1F)C1CCN(c2ccc(F)c(Cl)c2)CC1` [Example 88, 1-(3-chloro-4-fluorophenyl)-N-{2-fluoro-3-[6-oxo-4-(trifluoromethyl)-1,6-dihydropyrimidin-2-yl]-4-(trifluoromethyl)benzyl}piperidine-4-carboxamide], for which the IC50 under setting [1] was under 1 nM.

As to `O=c1cc(C(F)F)nc(-c2c(C(F)(F)F)ccc(CNC(=O)[C@H]3CC[C@H](OCc4ccc(Cl)cc4)CC3)c2F)[nH]1` [Example 116, trans-4-[(4-chlorobenzyl)oxy]-N-{3-[4-(difluoromethyl)-6-oxo-1,6-dihydropyrimidin-2-yl]-2-fluoro-4-(trifluoromethyl)benzyl}cyclohexane-1-carboxamide], the half-maximal inhibitory concentration (IC50) under setting [1] amounted to 10 nM.

For `Cc1nc(-c2c(C(F)(F)F)ccc(CNC(=O)[C@H]3C[C@H](OCc4cccc(F)c4)C3)c2F)[nH]c(=O)c1F` [Example 222, trans-N-[2-fluoro-3-(5-fluoro-4-methyl-6-oxo-1,6-dihydropyrimidin-2-yl)-4-(trifluoromethyl)benzyl]-3-[(3-fluorobenzyl)oxy]cyclobutane-1-carboxamide], under setting [2], the concentration for half-maximal inhibition (IC50) came out at 15 nM.

On to `O=c1cc(C(F)(F)F)nc(-c2c(C(F)(F)F)ccc(CNC(=O)[C@H]3CC[C@H](OCc4ccc(Cl)cc4F)CC3)c2F)[nH]1` [Example 118, trans-4-[(4-chloro-2-fluorobenzyl)oxy]-N-{2-fluoro-3-[6-oxo-4-(trifluoromethyl)-1,6-dihydropyrimidin-2-yl]-4-(trifluoromethyl)benzyl}cyclohexane-1-carboxamide], for which the concentration for half-maximal inhibition (IC50) under setting [1] is under 1 nM.

In the case of `CCc1nc(-c2c(C(F)(F)F)ccc(CNC(=O)[C@H]3C[C@H](OCc4cc(Cl)ccc4F)C3)c2F)[nH]c(=O)c1F` [Example 243, trans-3-[(5-chloro-2-fluorobenzyl)oxy]-N-[3-(4-ethyl-5-fluoro-6-oxo-1,6-dihydropyrimidin-2-yl)-2-fluoro-4-(trifluoromethyl)benzyl]cyclobutane-1-carboxamide], the IC50 under setting [2] was under 1 nM.

Regarding `CCc1nc(-c2c(C(F)(F)F)ccc(CNC(=O)[C@H]3CC[C@H](OCc4ccccc4Cl)CC3)c2F)[nH]c(=O)c1F` [Example 124, trans-4-[(2-chlorobenzyl)oxy]-N-[3-(4-ethyl-5-fluoro-6-oxo-1,6-dihydropyrimidin-2-yl)-2-fluoro-4-(trifluoromethyl)benzyl]cyclohexane-1-carboxamide], under setting [1], the IC50 was under 1 nM.

On to `Cc1nc(-c2c(C(F)(F)F)ccc(CNC(=O)[C@H]3C[C@H](OCc4ccccc4Cl)C3)c2F)[nH]c(=O)c1F` [Example 212, trans-3-[(2-chlorobenzyl)oxy]-N-[2-fluoro-3-(5-fluoro-4-methyl-6-oxo-1,6-dihydropyrimidin-2-yl)-4-(trifluoromethyl)benzyl]cyclobutane-1-carboxamide], for which the IC50 under setting [2] is under 1 nM.

Regarding `CCc1cc(=O)[nH]c(-c2c(C(F)(F)F)ccc(CNC(=O)[C@H]3C[C@H](OCc4cccc(Cl)c4)C3)c2F)n1` [Example 196, trans-3-[(3-chlorobenzyl)oxy]-N-[3-(4-ethyl-6-oxo-1,6-dihydropyrimidin-2-yl)-2-fluoro-4-(trifluoromethyl)benzyl]cyclobutane-1-carboxamide], the concentration for half-maximal inhibition (IC50) under setting [2] is under 1 nM.

Regarding `O=c1cc(C(F)(F)F)nc(-c2c(C(F)(F)F)ccc(CNC(=O)[C@H]3C[C@H](Oc4ccccc4Cl)C3)c2F)[nH]1` [Example 251, trans-3-(2-chlorophenoxy)-N-{2-fluoro-3-[6-oxo-4-(trifluoromethyl)-1,6-dihydropyrimidin-2-yl]-4-(trifluoromethyl)benzyl}cyclobutane-1-carboxamide], the IC50 under setting [2] was under 1 nM.
